Experimental findings from ChEMBL document CHEMBL3813611, “Antiprotozoal activity of bicycles featuring a dimethylamino group at their bridgehead” (Bioorg Med Chem, 2016) are described below.

One data set concerns Plasmodium falciparum. The data set can be described thus: Antiplasmodial activity against chloroquine/pyrimethamine resistant Plasmodium falciparum K1 infected in human red blood cells after 48 hrs by [3H]hypoxanthine incorporation assay. The class given is functional, organism-based.
Data set [1] has as its system Trypanosoma brucei rhodesiense. The data set can be described thus: Antitrypanosomal activity against Trypanosoma brucei rhodesiense STIB 900 bloodstream forms after 72 hrs by Alamar blue assay. The class given is functional, organism-based. The settings on record: STIB 900, 72 h. (Alamar Blue is a resazurin reagent that responds to reducing activity.)
The test system of the next data set is L6. The data set is described as follows: Cytotoxicity against rat L6 cells assessed as reduction in cell viability after 72 hrs by Alamar blue assay. The class given is cell-based. The following applies: L6, 72 h.
Data set [2] is described as follows: Selectivity index, ratio of IC50 for rat L6 cells to IC50 for chloroquine/pyrimethamine resistant Plasmodium falciparum K1 infected in human red blood cells. It counts as toxicity, cell-based. The settings on record: read-out: Ratio IC50.
Data set [3] in a line: Selectivity index, ratio of IC50 for rat L6 cells to IC50 for Trypanosoma brucei rhodesiense STIB 900 bloodstream forms. It counts as toxicity, cell-based. The settings on record: read-out: Ratio IC50.

Broadly, the IC50 is the concentration that gives 50% inhibition. Turning to `CCN(CC)CCC(=O)N1CC2C(c3ccccc3)CC(N(C)C)(CC2c2ccccc2)C1` (racemic), the IC50 was 390 nM in the data set on Plasmodium falciparum, 1460 nM in data set [1] and 15.4 µM in the data set with L6. The selectivity ratio is 39.6 in data set [2] and 20.6 in data set [3].
On to `CN(C)C12CCN(C(=O)CN3CCCCC3)C(C(c3ccccc3)C1)C(c1ccccc1)C2` (stereo not drawn), for which the 50% inhibitory concentration (IC50) in the data set on Plasmodium falciparum was 1720 nM; in data set [1] it was 9470 nM; in the data set on L6 it was 141 µM. Moreover, the results for the selectivity ratio in data set [2] and in data set [3] were 82.2 and 14.9, respectively.
The like results for `CN(C)C12CC(c3ccccc3)C(CN(CCCN3CCCCC3)C1)C(c1ccccc1)C2` (racemic) were, in that order, 190 nM, 150 nM, 1.75 µM, 9.21 and 11.7.
The like results for `CN(C)C12CC(NC(=O)CCN3CCCCC3)C(C(c3ccccc3)C1)C(c1ccccc1)C2` (racemic) were, in that order, 690 nM, 1490 nM, 7.85 µM, 11.4 and 5.27.
For the compound `CN1CCN(CC(=O)N2CC3C(c4ccccc4)CC(N(C)C)(CC3c3ccccc3)C2)CC1` (racemic), the IC50 came to 430 nM with Plasmodium falciparum, 1470 nM in data set [1] and 9.25 µM with L6. Moreover, the results for the selectivity ratio in data set [2] and in data set [3] were 21.5 and 6.29, respectively.
Take `CN(C)C12CC(c3ccccc3)C(CN(C(=O)CN3CCCCC3)C1)C(c1ccccc1)C2` (racemic): the concentration for half-maximal inhibition (IC50) with Plasmodium falciparum came out at 400 nM; in data set [1] it was 2400 nM; in the data set on L6, 12.1 µM. Also, the selectivity ratio in data set [2] turned out to be 30.3; in data set [3], 5.05.
In the case of `CN(C)C12CCN(CCN3CCCCC3)C(C(c3ccccc3)C1)C(c1ccccc1)C2` (racemic), the half-maximal inhibitory concentration (IC50) with Plasmodium falciparum was 870 nM; in data set [1], 2620 nM; in the data set on L6, 135 µM. In addition, the selectivity ratio was 155 in data set [2] and 51.6 in data set [3].
As to `CN1CCN(CCCN2CC3C(c4ccccc4)CC(N(C)C)(CC3c3ccccc3)C2)CC1` (racemic), the figures for the IC50 (in the data set with Plasmodium falciparum; in data set [1]; in the data set with L6) were 150 nM, 110 nM and 0.2 µM, respectively. Moreover, the selectivity ratio turned out to be 1.33 in data set [2] and 1.82 in data set [3].
As to `CCN(CC)CCCN1CC2C(c3ccccc3)CC(N(C)C)(CC2c2ccccc2)C1` (racemic), the IC50 with Plasmodium falciparum stood at 65 nM; in data set [1], 460 nM; in the data set on L6, 3.27 µM. The selectivity ratio in data set [2] was 50.3; in data set [3] it was 7.11.
As for `C[C@@H]1CC[C@H]2[C@@H](C)C(=O)O[C@@H]3O[C@@]4(C)CC[C@@H]1[C@]32OO4` [ARTEMISININ], in the data set with Plasmodium falciparum, inhibition was half-maximal at 6.4 nM (IC50). The selectivity ratio in data set [2] stood at 70400.
In the case of `CCN(CC)CCN1CCC2(N(C)C)CC(c3ccccc3)C1C(c1ccccc1)C2` (racemic), the figures for the half-inhibitory concentration (IC50) (in the data set with Plasmodium falciparum; in data set [1]; in the data set with L6) were 710 nM, 1790 nM and 101 µM, respectively. In addition, the figures for the selectivity ratio in data set [2] and in data set [3] were 142 and 56.5, respectively.
In the case of `CN1CCN(CCN2CC3C(c4ccccc4)CC(N(C)C)(CC3c3ccccc3)C2)CC1` (racemic), the figures for the IC50 (in the data set with Plasmodium falciparum; in data set [1]; in the data set with L6) were 250 nM, 270 nM and 5.26 µM, respectively. The selectivity ratio in data set [2] was 21; in data set [3] it was 19.5.
`CN(C)C12CC(c3ccccc3)C(CN(CCN3CCCC3)C1)C(c1ccccc1)C2` (racemic): the half-maximal inhibitory concentration (IC50) was found to be 290 nM with Plasmodium falciparum, 540 nM in data set [1] and 5.58 µM in the data set with L6. Also, the selectivity ratio in data set [2] turned out to be 19.2; in data set [3], 10.3.
Turning to `CN(C)C12CC(c3ccccc3)C(CN(CCCN3CCCC3)C1)C(c1ccccc1)C2` (racemic), the results for the half-inhibitory concentration (IC50) (in the data set on Plasmodium falciparum; in data set [1]; in the data set with L6) were 150 nM, 160 nM and 1.55 µM, respectively. In addition, the selectivity ratio turned out to be 10.3 in data set [2] and 9.69 in data set [3].
For `CN1CCN(CCC(=O)N2CC3C(c4ccccc4)CC(N(C)C)(CC3c3ccccc3)C2)CC1` (racemic), in that order: 180 nM, 1520 nM, 13 µM, 72.1 and 8.54.
In the case of `CN(C)C12CC(c3ccccc3)C(CN(C(=O)CCN3CCCCC3)C1)C(c1ccccc1)C2` (racemic), the IC50 in the data set with Plasmodium falciparum is 52 nM; in data set [1] it was 1230 nM; with L6 it was 12.4 µM. Further, the selectivity ratio in data set [2] stood at 238; in data set [3] it was 10.1.
Take `Nc1nc(N)nc(Nc2ccc([As]3SCC(CO)S3)cc2)n1` (stereo not drawn) [MELARSOPROL]: the selectivity ratio in data set [3] was 2000.
Regarding `CCN(CC)CC(=O)N1CCC2(N(C)C)CC(c3ccccc3)C1C(c1ccccc1)C2` (stereo not drawn), the IC50 in the data set with Plasmodium falciparum stood at 1300 nM; in data set [1] it was 5210 nM; with L6, 89.6 µM. Moreover, the selectivity ratio is 68.9 in data set [2] and 17.2 in data set [3].
Turning to `CN(C)C12CC(c3ccccc3)C(CN(CCN3CCCCC3)C1)C(c1ccccc1)C2` (racemic), the IC50 worked out at 90 nM in the data set with Plasmodium falciparum, 120 nM in data set [1] and 2.92 µM with L6. Also, the selectivity ratio in data set [2] stood at 32.4; in data set [3], 24.3.
In the case of `CN(C)C12CC(c3ccccc3)C(CN(C(=O)CN3CCCC3)C1)C(c1ccccc1)C2` (racemic), the IC50 came out at 240 nM in the data set with Plasmodium falciparum, 2160 nM in data set [1] and 12.6 µM in the data set on L6. In addition, the selectivity ratio in data set [2] is 52.4; in data set [3], 5.82.
`CN(C)C12CC(c3ccccc3)C(CN(C(=O)CCN3CCCC3)C1)C(c1ccccc1)C2` (racemic): the half-inhibitory concentration (IC50) in the data set with Plasmodium falciparum is 220 nM; in data set [1] it was 1570 nM; with L6 it was 11.7 µM. In addition, the selectivity ratio in data set [2] was 53.3; in data set [3], 7.46.
As for `CN(C)C12CC(NC(=O)CN3CCCCC3)C(C(c3ccccc3)C1)C(c1ccccc1)C2` (racemic), the half-inhibitory concentration (IC50) with Plasmodium falciparum was determined as 110 nM; in data set [1] it was 480 nM; with L6 it was 7.16 µM. Moreover, the selectivity ratio in data set [2] stood at 65.1; in data set [3], 14.9.
